One test addresses T1, human NTPDase2 (Homo sapiens, UniProt Q9Y5L3).
T1 sequence (Q9Y5L3 1-495): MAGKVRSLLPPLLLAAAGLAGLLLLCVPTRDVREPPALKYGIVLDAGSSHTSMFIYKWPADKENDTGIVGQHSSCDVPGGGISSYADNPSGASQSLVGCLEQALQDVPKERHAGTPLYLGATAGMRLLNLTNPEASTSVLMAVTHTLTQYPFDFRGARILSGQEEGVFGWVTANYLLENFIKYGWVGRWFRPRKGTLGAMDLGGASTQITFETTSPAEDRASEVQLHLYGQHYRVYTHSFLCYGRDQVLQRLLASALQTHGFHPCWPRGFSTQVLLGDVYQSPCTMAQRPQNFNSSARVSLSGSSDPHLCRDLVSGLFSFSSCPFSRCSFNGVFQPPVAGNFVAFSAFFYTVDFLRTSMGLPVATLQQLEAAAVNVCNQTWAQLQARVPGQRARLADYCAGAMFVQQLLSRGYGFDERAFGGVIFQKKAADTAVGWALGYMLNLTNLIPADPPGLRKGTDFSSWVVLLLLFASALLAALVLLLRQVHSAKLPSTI
Put plainly: NTPDase inhibition assay by capillary electrophoresis (CE), NTPDase2. Type of test: biochemical. The settings on record: for inhibition at 1000 µM: read-out: NTPDase2 inhibition (%) at 1 mM.

The target of the next test is T2, human NTPDase8 (Homo sapiens, UniProt Q5MY95).
T2 sequence (Q5MY95 1-495): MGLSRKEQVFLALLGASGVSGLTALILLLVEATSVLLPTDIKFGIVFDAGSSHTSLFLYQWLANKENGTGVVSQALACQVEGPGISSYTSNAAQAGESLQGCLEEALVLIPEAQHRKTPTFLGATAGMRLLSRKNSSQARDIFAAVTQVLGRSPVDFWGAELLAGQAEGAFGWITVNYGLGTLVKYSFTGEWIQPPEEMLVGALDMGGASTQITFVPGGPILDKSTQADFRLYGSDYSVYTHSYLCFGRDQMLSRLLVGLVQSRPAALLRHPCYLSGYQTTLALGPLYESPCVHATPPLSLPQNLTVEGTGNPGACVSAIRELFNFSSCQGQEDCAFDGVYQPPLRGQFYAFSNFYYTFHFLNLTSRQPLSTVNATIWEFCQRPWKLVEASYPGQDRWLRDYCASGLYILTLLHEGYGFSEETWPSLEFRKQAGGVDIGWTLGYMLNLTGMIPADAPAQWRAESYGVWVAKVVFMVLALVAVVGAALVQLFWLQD
Kind of test: NTPDase inhibition assay by capillary electrophoresis (CE), NTPDase8. Type of test: biochemical. The settings on record: for inhibition at 1000 µM: human NTPDase8, 1 mM compound, ATP 320 μM; for Ki: read-out: NTPDase8 Ki [μM] ± SEM. As to the method: (§1) The applied enzyme inhibition assay has been described (Iqbal J, Vollmayer P, Braun N, Zimmermann H, Müller C E. A capillary electrophoresis method for the characterization of ecto-nucleoside triphosphate diphosphohydrolases (NTPDases) and the analysis of inhibitors by in-capillary enzymatic microreaction. Purinergic Signalling 2005, 1, 349-358).
(§2) A. CE instrumentation: All experiments were carried out using a P/ACE MDQ capillary electrophoresis system (Beckman Instruments, Fullerton, Calif., USA) equipped with a UV detection system coupled with a diode-array detector (DAD). Data collection and peak area analysis were performed by the P/ACE MDQ software 32 KARAT obtained from Beckman Coulter. The capillary temperature was kept constant at 25° C. The temperature of the sample storing unit was also adjusted to 25° C. The electrophoretic separations were carried out using an eCAP polyacrylamide-coated fused-silica capillary [(30 cm (20 cm effective length)×50 μm internal diameter (I.D.)×360 μm outside diameter (O.D.), obtained from CS-Chromatographie (Langerwehe, Germany)]. The separation was performed using an applied current of −60 μA and a data acquisition rate of 8 Hz. Analytes were detected using direct UV absorbance at 210 nm. The capillary was conditioned by rinsing with water for 2 min and subsequently with buffer (phosphate 50 mM, pH 6.5) for 1 min. Sample injections were made at the cathodic side of the capillary.
(§3) B. NTPDase inhibition assay by capillary electrophoresis: Enzyme inhibition assays were carried out at 37° C. in a final volume of 100 μl. The reaction mixture contained 320 μM of ATP (substrate) in reaction buffer. The reaction buffer contained 140 mM NaCl, 5 mM KCl, 1 mM MgCl2, 2 mM CaCl2, and 10 mM Hepes, pH 7.4.
(§4) Different concentrations of inhibitors dissolved in DMSO or water (10 μl) were added and the reaction was initiated by the addition of 10 μl of the appropriately diluted recombinant or native human or rat NTPDase enzyme. […] The mixture (final volume 100 μl) was incubated for 15 min and terminated by heating at 99° C. for 4 min. Aliquots of the reaction mixture (50 μl) were then transferred to mini-CE vials and injected into the CE instrument under the conditions described above. 20 μM of UMP was used as internal standard. Inhibition of NTPDase was tested over a range of 6 to 8 concentrations of test compound spanning 3 orders of magnitude to determine K1 values. Each analysis was repeated two times (in triplicates) in two separate experiments. The Cheng-Prusoff equation was used to calculate the K1 values from the IC50 values, determined by the non-linear curve fitting program PRISM® 3.0 (GraphPad, San Diego, Calif., USA). In table 1K, values of selected compounds as inhibitors of human NTPDases are given.

Another test deals with hP2Y12 (Homo sapiens, UniProt Q9H244). Kind of test: Inhibition of [3H]PSB-0413 binding at hP2Y12. Particulars: mean ± SEM, read-out: hP2Y12 % Inhibition of [^3H]PSB-0413 Binding at 10 μM, n = 3. On the procedure:
In table 2 inhibition data of selected examples at human P2Y receptor subtypes were collected. It can be seen that no compound was identified that inhibited P2Y receptors at high concentrations of 100 μM and 10 μM, respectively.

For the next test, the target named is T3, human NTPDase1 (Homo sapiens, UniProt P49961).
T3 sequence (P49961 1-510): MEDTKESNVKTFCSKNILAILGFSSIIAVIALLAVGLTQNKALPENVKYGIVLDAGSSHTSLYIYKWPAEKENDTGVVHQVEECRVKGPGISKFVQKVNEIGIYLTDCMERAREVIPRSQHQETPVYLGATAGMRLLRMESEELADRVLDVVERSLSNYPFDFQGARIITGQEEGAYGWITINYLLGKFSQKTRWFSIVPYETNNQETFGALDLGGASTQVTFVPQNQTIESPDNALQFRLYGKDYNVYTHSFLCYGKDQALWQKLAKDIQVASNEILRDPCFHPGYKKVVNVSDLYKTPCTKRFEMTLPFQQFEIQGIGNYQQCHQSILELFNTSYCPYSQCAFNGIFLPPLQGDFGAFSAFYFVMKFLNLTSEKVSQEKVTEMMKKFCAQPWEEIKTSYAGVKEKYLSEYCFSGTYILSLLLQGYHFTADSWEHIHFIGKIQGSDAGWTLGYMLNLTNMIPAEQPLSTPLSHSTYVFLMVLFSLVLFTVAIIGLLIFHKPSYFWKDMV
Put plainly: NTPDase inhibition assay by capillary electrophoresis (CE), NTPDase1. Type of test: biochemical. Particulars: ATP 320 μM; for inhibition at 1000 µM: 1 mM compound; for Ki: CE method, Km 17 μM, read-out: NTPDase1 Ki [μM] ± SEM. On the procedure: as §1, §2, §3, §4

A further test deals with T4, human NTPDase3 (Homo sapiens, UniProt O75355).
T4 sequence (O75355 1-529): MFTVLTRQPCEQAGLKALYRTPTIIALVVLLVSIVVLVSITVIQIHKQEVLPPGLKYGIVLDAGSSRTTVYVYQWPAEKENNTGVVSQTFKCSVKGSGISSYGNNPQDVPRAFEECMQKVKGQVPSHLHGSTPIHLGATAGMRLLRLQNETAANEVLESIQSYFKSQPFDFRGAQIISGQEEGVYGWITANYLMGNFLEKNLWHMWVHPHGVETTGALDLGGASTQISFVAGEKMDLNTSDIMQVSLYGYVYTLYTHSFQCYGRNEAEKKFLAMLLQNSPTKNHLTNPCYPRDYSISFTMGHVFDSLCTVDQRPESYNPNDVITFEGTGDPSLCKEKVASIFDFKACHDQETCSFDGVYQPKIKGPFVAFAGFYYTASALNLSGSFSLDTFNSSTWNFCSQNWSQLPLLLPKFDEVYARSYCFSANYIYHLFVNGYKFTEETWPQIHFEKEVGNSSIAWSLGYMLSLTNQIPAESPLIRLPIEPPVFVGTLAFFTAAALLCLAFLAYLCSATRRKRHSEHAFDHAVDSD
Kind of test: NTPDase inhibition assay by capillary electrophoresis (CE), NTPDase3. Type of test: biochemical. Particulars: ATP 320 μM; for inhibition at 1000 µM: 1 mM compound; for Ki: CE method, Km 75 μM, read-out: NTPDase3 Ki [μM] ± SEM. As to the method:
as §1, §2, §3, §4

The next test concerns the target rP2Y6 (Rattus norvegicus, UniProt Q63371). Kind of test: Inhibition of UDP binding at rP2Y6. Particulars: read-out: rP2Y6 % inhibition of UDP binding at 100 μM, n = 3, mean ± SEM.
Setting [1] is: human NTPDase2, CE method, ATP 320 μM, Km 70 μM, read-out: NTPDase2 Ki [μM] ± SEM.

From patent publication US20100204182A1, “ECTONUCLEOTIDASE INHIBITORS” (RHEINISCHE FRIEDRICH-WILHELMS-UNIVERSITAT BONN, priority 2006, published 2010) come the findings set out here.

Where two headings read alike, the source gives them in different places.

Sequence of rP2Y6 (Q63371 whole entry): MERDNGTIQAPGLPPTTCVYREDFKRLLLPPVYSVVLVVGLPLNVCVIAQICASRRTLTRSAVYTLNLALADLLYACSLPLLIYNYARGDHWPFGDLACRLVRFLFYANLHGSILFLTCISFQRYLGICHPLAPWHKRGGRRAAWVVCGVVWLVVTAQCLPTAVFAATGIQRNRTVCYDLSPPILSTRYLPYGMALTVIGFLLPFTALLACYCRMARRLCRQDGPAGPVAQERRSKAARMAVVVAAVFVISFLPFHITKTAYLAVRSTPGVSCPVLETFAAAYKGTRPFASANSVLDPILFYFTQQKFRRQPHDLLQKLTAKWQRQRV
Sequence of hP2Y12 (Q9H244 whole entry): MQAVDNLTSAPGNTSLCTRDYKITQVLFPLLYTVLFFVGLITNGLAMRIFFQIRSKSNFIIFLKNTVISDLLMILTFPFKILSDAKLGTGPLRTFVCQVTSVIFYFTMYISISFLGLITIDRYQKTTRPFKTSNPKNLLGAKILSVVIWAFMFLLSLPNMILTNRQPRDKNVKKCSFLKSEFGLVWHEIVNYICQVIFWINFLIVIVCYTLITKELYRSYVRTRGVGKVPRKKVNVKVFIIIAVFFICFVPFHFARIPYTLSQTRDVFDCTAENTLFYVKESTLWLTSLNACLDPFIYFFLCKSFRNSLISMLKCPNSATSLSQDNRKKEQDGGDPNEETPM

One may read the Ki as a measure of affinity in units of concentration, obtained from inhibition or displacement. What is called inhibition is the drop in the measured response relative to a control, in per cent. With `CCOP(=O)(Cc1ccc(NC(=O)CNC(=O)[C@H]2O[C@@H](n3cnc4c(N)ncnc43)C(O)C2O)cc1)OCC` (stereo in doubt) [CC1, 4-[2-((2S,3R,4S,5R)-5-(6-Amino-9H-purin-9-yl)-3,4-dihydroxy-tetrahydro-furane-2-carboxamido)ethaneamido]benzylphosphonic acid diethylester], the Ki at human NTPDase2 was over 200 µM; at human NTPDase8 it was over 100 µM; on human NTPDase1, over 50 µM; on human NTPDase3 it was over 200 µM. Also, the inhibition at 1000 µM on human NTPDase2, at human NTPDase8, against human NTPDase1 and on human NTPDase3 was 0% each time. Besides, the inhibition at 10 µM at hP2Y12 is -4 ± 6%.
On to `CCOP(=O)(Cc1ccc(NC(=O)CCNC(=O)[C@H]2O[C@@H](n3cnc4c(N)ncnc43)C(O)C2O)cc1)OCC` (stereo in doubt) [CC2, 4-[3-((2S,3R,4S,5R)-5-(6-Amino-9H-purin-9-yl)-3,4-dihydroxy-tetrahydro-furane-2-carboxamido)propaneamido]benzylphosphonic acid diethylester], for which the inhibition constant (Ki) on human NTPDase2 (setting [1]) was 1440 ± 64 µM; on human NTPDase8, 255 ± 25.3 µM; at human NTPDase1, 154 ± 37 µM; at human NTPDase3, over 200 µM. Besides, the inhibition at 10 µM at hP2Y12 was determined as 1 ± 6%. On human NTPDase3, the inhibition at 1000 µM came out at 0%.
For `CCOP(=O)(Cc1ccc(NC(=O)CCCNC(=O)[C@H]2O[C@@H](n3cnc4c(N)ncnc43)C(O)C2O)cc1)OCC` (stereo in doubt) [CC3, 4-[4-((2S,3R,4S,5R)-5-(6-Amino-9H-purin-9-yl)-3,4-dihydroxy-tetrahydro-furane-2-carboxamido)butaneamido]benzylphosphonic acid diethylester], the Ki at human NTPDase2 (setting [1]) is 213 ± 34 µM; at human NTPDase8, over 100 µM; on human NTPDase1, 161 ± 24 µM; at human NTPDase3, over 200 µM. The inhibition at 1000 µM on human NTPDase8 and on human NTPDase3 was 0% each time. The inhibition at 10 µM on hP2Y12 amounted to 5 ± 1%.
In the case of `CCOP(=O)(OCC)C(NC(=O)CCNC(=O)[C@H]1O[C@@H](n2cnc3c(N)ncnc32)C(O)C1O)P(=O)(OCC)OCC` (stereo in doubt) [CC4, 3-[(2S,3R,4S,5R)-5-(6-Amino-9H-purin-9-yl)-3,4-dihydroxy-tetrahydrofurane-2-carboxamido]propaneamidomethylenediphosphonic acid tetraethylester], on human NTPDase2, the Ki was over 200 µM and the inhibition at 1000 µM was found to be 0%. Moreover, at rP2Y6, the inhibition at 100 µM is 5 ± 8%. In addition, at human NTPDase1, the inhibition at 1000 µM came to 0% and the Ki is over 50 µM.
Consider `CCOP(=O)(OCC)C(NC(=O)CCCNC(=O)[C@H]1O[C@@H](n2cnc3c(N)ncnc32)C(O)C1O)P(=O)(OCC)OCC` (stereo in doubt) [CC5, 4-[(2S,3R,4S,5R)-5-(6-Amino-9H-purin-9-yl)-3,4-dihydroxy-tetrahydrofurane-2-carboxamido]butaneamidomethylenediphosphonic acid tetraethylester], for which, at human NTPDase2, the Ki was over 200 µM and the inhibition at 1000 µM came out at 0%. Also, on rP2Y6, the inhibition at 100 µM is -5 ± 2%. On human NTPDase1, the inhibition at 1000 µM amounted to 0% and the Ki was over 50 µM.
For `CCOP(=O)(Cc1ccc(NC(=O)[C@H]2O[C@@H](n3ccc(=O)[nH]c3=O)C(O)C2O)cc1)OCC` (stereo in doubt) [Compound 1, 4-[(2S,3R,4S,5R)-5-(2,4-Dioxo-3,4-dihydropyrimidin-1(2H)-yl)-3,4-dihydroxy-tetrahydrofurane-2-carboxamido]benzylphosphonic acid diethylester], affinity on human NTPDase2 was put at a Ki of 117 ± 15 µM. Further, the inhibition at 100 µM on rP2Y6 was -12 ± 3%.
Regarding `CCOP(=O)(CC(=O)OCCNC(=O)CNC(=O)[C@H]1O[C@@H](n2ccc(=O)[nH]c2=O)[C@@H](O)[C@H]1O)OCC` [Compound 9, 2-[(2S,3R,4S,5R)-5-(2,4-Dioxo-3,4-dihydropyrimidin-1(2H)-yl)-3,4-dihydroxy-tetrahydro-furane-2-carboxamido]ethaneamido-ethyloxycarbonyl methylenephosphonic acid diethylester], the “NTPDase2 inhibition (%) at 1 mM” value on human NTPDase2 (human NTPDase2, 1 mM compound, ATP 320 μM) came out at 54%. Besides, the inhibition constant (Ki) at human NTPDase2 (setting [1]) is about 165 µM.
